Where two headings read alike, the source gives them in different places.
Columns and labels:
[1] = target: T1, Human cytomegalovirus DNA polymerase (Human cytomegalovirus, UniProt P08546); experiment: HCMV polymerase assay (AlphaLISA); assay type: biochemical; details: HCMV DNA polymerase 0.2 nM, 60 minutes at 37° C.; read-out: CMV (IC50)
T1 construct: made in house; host or cells: SF21 insect cells (baculovirus vector)
How it was run: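 Baculovirus/SF21-expressed polymerase (HCMV 0.2 nM; VZV 0.4 nM) pre-incubated 30 min at room temperature with compound in HEPES pH 7.5 buffer, then 60 min at 37 °C with 1.6 nM DIG-primer/template, sub-nM to 24 nM dNTPs and 0.8 nM biotin-dUTP. AlphaLISA detection; IC50 from 4-parameter fit.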

[2] = tested on: HSV-1 Strain F; experiment: Viral qPCR assay, HSV-1 in Vero cells; assay type: cell-based, Herpes Simplex Virus type 1; details: read-out: HSV1 VERO Cell (EC50)
Experimental: (§1) MRCS cells, Vero cells, and MeWo cells were obtained from ATCC and were maintained at 37° C./5% CO2/90% relative humidity in Minimal Essential Medium with 10% fetal bovine serum, […] L-glutamine, 100 units/ml penicillin and 100 ug/ml streptomycin. Assay plates were prepared by dispensing compounds dissolved in DMSO into wells of 384 well collagen-coated plates using an ECHO acoustic dispenser. Each compound was tested in a 10-point, serial 3-fold dilution. Controls included uninfected cells and infected cells treated only with DMSO. Assays were initiated by mixing selected cells, in suspension, with virus, and dispensing 50 μl/well infected cells to pre-plated compounds. Plates were incubated at 37° C./5% CO2/90% relative humidity for ˜72 hrs to permit genomic replication, and infected cells were lysed by the addition of an equal volume of lysis buffer (10 mM Tris-HCl, pH8, 50 mM KCl, 2 mM MgCl2, 0.45% NP-40, 0.45% Tween-20, and 100 μg/ml proteinase K). An aliquot of the lysate was transferred to a 384-well PCR plate and incubated at 56° C. for 1 hour and then at 95° C. for 10 min. Levels of a viral gene and of the cellular control, PPIA (Thermo Fisher Assay ID=Hs04194521_s1), were measured in separate 10 μL qPCR assays using TaqMan® Gene Expression Master Mix (Applied Biosystems), and an 7900HT Fast Real-Time PCR System with 384-Well Block Module. 7-point, serial 10-fold dilutions of a plasmid standard were run on each plate to generate a standard curve, and genome copies numbers were calculated by plotting experimental Ct onto linear regression of the standard curve. Viral genome copy numbers were normalized by cellular control copy number, and compound effects were normalized to the window defined by the controls. Calculated % effects were fit using a 4-parameter algorithm, and EC50 was reported.
as §1, with “gene” for “gene and of the cellular control, PPIA (Thermo Fisher Assay ID=Hs04194521_s1),”, “in” for “in separate”, “Compound effects on viral” for “Viral”, “number” for “numbers were normalized by cellular control copy number, and compound effects”
(§2) VZV: Strain Street was maintained as an infected cell stock in MRC-5 cells. It was assayed in MeWo or MRCS cells and was used at 0.04-0.1 pfu/cell. The assays were performed in growth medium. Primer-probe set was Thermo Fisher Assay ID=AIPAEXQ. HSV-1: Strain F Street was assayed in Vero or MRCS cells and was used at 0.0005-0.004 pfu/cell in growth medium. Primer-probe set was Thermo Fisher Assay ID=AIBJZIB

[3] = tested on: HSV2; experiment: Viral qPCR assay, HSV2 in Vero cells; assay type: cell-based, Herpes Simplex Virus type 2; details: read-out: HSV2 VERO Cell (EC50)
Experimental: as §1
as §1, with “gene” for “gene and of the cellular control, PPIA (Thermo Fisher Assay ID=Hs04194521_s1),”, “in” for “in separate”, “Compound effects on viral” for “Viral”, “number” for “numbers were normalized by cellular control copy number, and compound effects”

[4] = target: T2, varicella zoster virus DNA polymerase (Varicella-zoster virus, UniProt P09252); experiment: VZV polymerase assay (AlphaLISA); assay type: biochemical; details: VZV DNA polymerase 0.4 nM, 60 minutes at 37° C.
T2 construct: made in house; host or cells: SF21 insect cells (baculovirus vector)
T2 sequence (P09252 whole entry): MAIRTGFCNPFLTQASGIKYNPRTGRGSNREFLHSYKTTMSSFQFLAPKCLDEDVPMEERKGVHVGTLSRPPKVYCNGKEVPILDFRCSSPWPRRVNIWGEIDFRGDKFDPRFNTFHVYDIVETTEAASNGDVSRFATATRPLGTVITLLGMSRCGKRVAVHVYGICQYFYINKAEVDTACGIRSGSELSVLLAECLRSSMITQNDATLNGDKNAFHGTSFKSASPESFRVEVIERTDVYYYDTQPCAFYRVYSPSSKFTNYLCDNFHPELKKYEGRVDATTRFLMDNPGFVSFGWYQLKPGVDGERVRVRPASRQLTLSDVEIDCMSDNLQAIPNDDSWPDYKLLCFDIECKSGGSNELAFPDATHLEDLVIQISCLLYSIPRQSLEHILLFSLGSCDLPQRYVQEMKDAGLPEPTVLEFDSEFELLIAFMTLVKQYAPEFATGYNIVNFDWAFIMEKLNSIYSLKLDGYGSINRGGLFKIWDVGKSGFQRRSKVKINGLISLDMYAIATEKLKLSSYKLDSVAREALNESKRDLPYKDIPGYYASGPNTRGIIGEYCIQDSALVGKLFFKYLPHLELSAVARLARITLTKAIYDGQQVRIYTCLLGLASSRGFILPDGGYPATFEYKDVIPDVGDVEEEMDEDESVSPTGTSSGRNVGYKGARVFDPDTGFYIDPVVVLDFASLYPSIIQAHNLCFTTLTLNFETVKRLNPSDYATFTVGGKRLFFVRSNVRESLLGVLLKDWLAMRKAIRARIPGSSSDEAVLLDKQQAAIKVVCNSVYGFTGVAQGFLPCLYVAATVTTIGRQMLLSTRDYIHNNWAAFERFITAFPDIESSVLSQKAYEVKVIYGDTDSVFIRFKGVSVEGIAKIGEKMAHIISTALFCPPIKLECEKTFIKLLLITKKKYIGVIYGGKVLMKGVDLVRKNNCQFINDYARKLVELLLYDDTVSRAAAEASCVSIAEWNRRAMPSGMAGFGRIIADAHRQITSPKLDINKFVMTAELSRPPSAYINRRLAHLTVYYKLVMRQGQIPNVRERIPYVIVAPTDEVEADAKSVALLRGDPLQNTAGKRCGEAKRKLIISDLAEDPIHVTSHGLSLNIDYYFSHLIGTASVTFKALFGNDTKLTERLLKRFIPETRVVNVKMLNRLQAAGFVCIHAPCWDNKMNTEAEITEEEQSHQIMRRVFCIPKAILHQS
Experimental: Human cytomegalovirus and varicella zoster virus DNA polymerases were expressed via baculovirus vector in SF21 cells and purified. Heterodimeric nucleic acid substrate used in the herpesvirus polymerase reactions was generated by annealing a 59-mer template to a 17-mer digoxigenin-labeled primer. Polymerase (HCMV final concentration of 0.2 nM; VZV final concentration of 0.4 nM) was combined with an inhibitor compound or DMSO in assay buffer (10 mM HEPES, pH 7.5, 25 mM KCl, 25 mM NaCl, 5 mM MgCl2, 5% glycerol, 0.67 mg/ml bovine serum albuminutes, and 1 mM tris(2-carboxyethyl)phosphine), and this mixture was pre-incubated for 30 minutes at room temperature in 384-well microtiter plates. The polymerization reaction was initiated by the addition of template/primer substrate (final concentration: 1.6 nM), and dNTPs (final concentration: 24 nM dCTP, 24 nMdGTP, 16 nM dATP, 16 nM dTTP, and 0.8 nM biotin-dUTP). After 60 minutes incubation at 37° C., reactions were terminated with quench buffer (25 mM HEPES pH 7.5, 100 mM NaCl, 0.25% Tween-20, 12 mM EDTA, and 1 mg/ml bovine serum albumin). Incorporation of biotinylated UTP was detected with 2.5-ug/ml anti-DIG AlphaLISA acceptor beads and 5-10 ug/ml streptavidin AlphaLISA donor beads (Perkin Elmer). Compound effects were normalized to the window defined by the controls (DMSO only and pre-quenched wells) and were fit using a 4-parameter algorithm to report an IC50.

[5] = tested on: HCMV Strain AD169; experiment: Viral qPCR assay, HCMV in MRC-5 cells; assay type: cell-based, Human cytomegalovirus; details: read-out: CMV MRC5 Cell (EC50)
How it was run: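 Viral genome copies, quantified by TaqMan qPCR with a plasmid standard curve after ~72 h infection of MRC-5 cells with AD169 at 0.05-0.1 pfu/cell, served as readout; PPIA normalisation used in one format. Compounds run as 10-point 3-fold series, in standard or 50% FBS media; EC50 by 4-parameter fit.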

[6] = tested on: VZV; experiment: Viral qPCR assay, VZV in MeWo cells; assay type: cell-based, varicella zoster virus; details: Human alphaherpesvirus 3, ~72 hrs, read-out: VZV MEWO Cell (IC50)
Experimental: as §1
as §1, with “gene” for “gene and of the cellular control, PPIA (Thermo Fisher Assay ID=Hs04194521_s1),”, “in” for “in separate”, “Compound effects on viral” for “Viral”, “number” for “numbers were normalized by cellular control copy number, and compound effects”
as §2

[7] = tested on: VZV; experiment: Viral qPCR assay, VZV in MRC5 cells; assay type: cell-based, varicella zoster virus; details: read-out: VZV MRC5 Cell (IC50)
How it was run: (§3)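 EC50 from a 4-parameter fit of viral genome copies, quantified by TaqMan qPCR on proteinase K lysates against a plasmid standard, with or without PPIA normalization. Infected cells (VZV 0.04-0.1 pfu/cell in MeWo/MRC5; HSV-1 0.0005-0.004 pfu/cell in Vero/MRC5) were exposed to 10-point 3-fold dilutions for ~72 h at 37 °C.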

[8] = tested on: HSV2; experiment: Viral qPCR assay, HSV2 in MRC5 cells; assay type: cell-based, Herpes Simplex Virus type 2; details: read-out: HSV2 MRC5 Cell (EC50)
How it was run: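 EC50 from a 4-parameter fit of % effect on HSV2 genome copies, quantified by qPCR from a plasmid standard curve and normalized to infected DMSO and uninfected controls, with PPIA correction in one version. Virus-mixed Vero or MRC5 cells met 10-point 3-fold serial compound dilutions for ~72 h at 37 °C.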

[9] = tested on: HSV-1 Strain F; experiment: Viral qPCR assay, HSV-1 in MRC5 cells; assay type: cell-based, Herpes Simplex Virus type 1; details: read-out: HSV1 MRC5 Cell (EC50)
How it was run: as §3

[10] = Human alphaherpesvirus 1, Vero, 72 h
[11] = Human alphaherpesvirus 2, Vero, 72 h
[12] = Human betaherpesvirus 5, AD169, MRC5, 72 h
[13] = Human alphaherpesvirus 3, MRC5, 72 h
[14] = Human alphaherpesvirus 2, MRC5, 72 h
[15] = Human alphaherpesvirus 1, MRC5, 72 h

T1 sequence (P08546 whole entry): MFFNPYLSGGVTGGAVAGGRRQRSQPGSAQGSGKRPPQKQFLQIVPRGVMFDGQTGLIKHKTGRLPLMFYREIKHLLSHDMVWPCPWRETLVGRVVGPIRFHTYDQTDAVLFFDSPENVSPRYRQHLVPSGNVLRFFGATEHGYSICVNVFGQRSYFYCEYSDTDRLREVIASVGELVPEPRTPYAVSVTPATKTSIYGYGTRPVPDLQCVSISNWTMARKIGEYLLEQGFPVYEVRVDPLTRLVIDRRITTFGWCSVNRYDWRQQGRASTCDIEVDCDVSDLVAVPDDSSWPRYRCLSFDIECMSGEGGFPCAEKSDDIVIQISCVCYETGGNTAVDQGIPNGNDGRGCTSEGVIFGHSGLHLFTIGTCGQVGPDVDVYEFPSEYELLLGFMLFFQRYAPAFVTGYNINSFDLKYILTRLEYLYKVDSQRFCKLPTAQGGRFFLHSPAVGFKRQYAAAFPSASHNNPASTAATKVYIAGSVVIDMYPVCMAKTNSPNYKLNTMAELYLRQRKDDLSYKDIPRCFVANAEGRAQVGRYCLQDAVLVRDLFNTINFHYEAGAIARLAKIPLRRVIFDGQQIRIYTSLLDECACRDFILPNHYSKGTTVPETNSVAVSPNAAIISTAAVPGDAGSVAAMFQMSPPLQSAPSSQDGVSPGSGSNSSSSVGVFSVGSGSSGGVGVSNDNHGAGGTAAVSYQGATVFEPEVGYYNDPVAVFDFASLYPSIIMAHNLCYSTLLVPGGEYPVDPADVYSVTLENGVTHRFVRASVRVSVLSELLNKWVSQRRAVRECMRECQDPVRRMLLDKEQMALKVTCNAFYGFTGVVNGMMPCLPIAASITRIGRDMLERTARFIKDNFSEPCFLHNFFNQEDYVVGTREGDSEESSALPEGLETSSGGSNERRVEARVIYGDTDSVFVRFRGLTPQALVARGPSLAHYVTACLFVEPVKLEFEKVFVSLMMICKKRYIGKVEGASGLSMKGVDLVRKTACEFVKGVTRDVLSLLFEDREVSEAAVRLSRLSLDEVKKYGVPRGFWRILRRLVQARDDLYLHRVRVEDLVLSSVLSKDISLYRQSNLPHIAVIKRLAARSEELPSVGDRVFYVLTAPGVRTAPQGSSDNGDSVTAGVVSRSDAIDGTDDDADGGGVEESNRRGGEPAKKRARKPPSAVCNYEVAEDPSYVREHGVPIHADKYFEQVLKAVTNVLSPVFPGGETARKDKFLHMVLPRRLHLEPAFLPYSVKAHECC

SMILES	IC50 [1] [nM]	EC50 [2, 10] [nM]	EC50 [3, 11] [nM]	IC50 [4] [nM]	IC50 [6] [nM]	EC50 ([2]; ~72 hrs) [nM]	EC50 ([3]; ~72 hrs) [nM]	EC50 [5, 12] [nM]	IC50 [7, 13] [nM]	EC50 [8, 14] [nM]	EC50 [9, 15] [nM]	EC50 ([5]; MRC5 cells, ~72 hrs) [nM]	IC50 ([7]; ~72 hrs) [nM]	EC50 ([8]; ~72 hrs) [nM]	EC50 ([9]; ~72 hrs) [nM]
CN(CCn1nc(C(=O)NCc2ccc(Cl)cc2)c2c1CN(C[C@H]1CCC(=O)N1)C2)C(=O)C1CCC1 [Compound 3]	8.75	33300	56900	3.45	342			1260							
CC(C)CN1CC(n2nc(C(=O)NCc3ccc(Cl)cc3)c3c2CC(C[C@H]2CCC(=O)N2)C3)C1 (stereo partly drawn) [Compound 135]	89.3	1520	1970	26.1				769	633	589	749				
Cn1nc(C(=O)NCc2ccc(Cl)cc2)c2c1CN(C[C@@H]1CC(F)C(=O)N1)C2 (stereo partly drawn) [Compound 80]	168			102		1930	2310					2780	3890	2830	4000
O=C1CC[C@H](CN2Cc3c(C(=O)NCc4ccc(Cl)cc4)nn(CCC4CCOC4)c3C2)N1 (stereo partly drawn) [Compound 38]	34.6	2580	5830	15.6	500			1240							
O=C1CC[C@H](CC2Cc3c(C(=O)NCc4ccc(Cl)cc4)nn(CCN4CCOCC4)c3C2)N1 (stereo partly drawn) [Compound 133]	85.8	1620	1060	19.7				805	1210	557	1190				
CC(C)N1CC(n2nc(C(=O)NCc3ccc(Cl)cc3)c3c2CC(C[C@H]2CCC(=O)N2)C3)C1 (stereo partly drawn) [Compound 134]	87.4			14.9		991	584					970	832	545	1170

Now from value to compound, other results behind:

IC50 [1] [nM]	EC50 [2, 10] [nM]	EC50 [3, 11] [nM]	IC50 [4] [nM]	IC50 [6] [nM]	EC50 ([2]; ~72 hrs) [nM]	EC50 ([3]; ~72 hrs) [nM]	SMILES	EC50 [5, 12] [nM]	IC50 [7, 13] [nM]	EC50 [8, 14] [nM]	EC50 [9, 15] [nM]	EC50 ([5]; MRC5 cells, ~72 hrs) [nM]	IC50 ([7]; ~72 hrs) [nM]	EC50 ([8]; ~72 hrs) [nM]	EC50 ([9]; ~72 hrs) [nM]
120	536	712	18.9	602			CC(C)(O)Cn1nc(C(=O)NCc2ccc(Cl)cc2)c2c1CN(C[C@H]1CCC(=O)N1)C2 [Compound 58]	1230							
70.6	1370	3540	48.6				[2H]C([2H])([2H])n1nc(C(=O)NCc2ccc(Cl)cc2)c2c1CN(C[C@H]1CCC(=O)N1)C2 [Compound 59]	714	5210	3180	7100				
245	12000	16400	65.9	2350			CC1(Cn2nc(C(=O)NCc3ccc(Cl)cc3)c3c2CN(C[C@H]2CCC(=O)N2)C3)COC1 [Compound 30]	5750							
14.1	381	165	5.68				Cn1nc(C(=O)NCc2ccc(Cl)cc2)c2c1CN(C[C@H]1CCC(=O)N1)C2 [Compound 32]	420	418	500	653				
